Consider three compounds from PMC12126525, “Mechanism of ATP hydrolysis in the Hsp70 BiP nucleotide-binding domain” (Nature Communications, 2025).

The target in assay [1] is T1, BiP NBD (Homo sapiens, UniProt P11021). Briefly: Exchange spectroscopy (EXSY) NMR of NBD apo / NBD·Pi exchange. The assay is classed as binding. More on the design: His6 (N, cleaved yes); made in house; host or cells: E. coli BL21-(DE3)-Lemo, pET28a vector. The settings on record: 25 °C, 400 μM BiP NBD, 200 μM phosphate. As for the experimental part: ^13C-edited 2D Exchange Spectroscopy (EXSY) experiments were acquired to characterize the exchange between the NBD apo and NDB·Pi state (k3on, k3off). For this purpose, we used a modified methyl-TROSY experiment with an additional EXSY element prior to acquisition (90° ^1H – EXSY mixing delay – 90° ^1H)[49]. A recycle delay of 1 s was used in all experiments. The EXSY mixing times were set to 5, 50, 100, 200, 300, 400, 500, 600, 800, 1000, 1250, 1500 ms, with an average acquisition time of 120 min for each spectrum. The EXSY experiments were performed at 25 °C with a [U-^2H, ^15N, ^12C], Met-[^13CH3]^ε and Ile-[^13CH3]^δ1 BiP NBD sample at 400 μM in NMR buffer (25 mM HEPES, pH 7.5, 150 mM KCl and 20 mM MgCl2) with 200 μM of phosphate.
T1 sequence (P11021 19-406): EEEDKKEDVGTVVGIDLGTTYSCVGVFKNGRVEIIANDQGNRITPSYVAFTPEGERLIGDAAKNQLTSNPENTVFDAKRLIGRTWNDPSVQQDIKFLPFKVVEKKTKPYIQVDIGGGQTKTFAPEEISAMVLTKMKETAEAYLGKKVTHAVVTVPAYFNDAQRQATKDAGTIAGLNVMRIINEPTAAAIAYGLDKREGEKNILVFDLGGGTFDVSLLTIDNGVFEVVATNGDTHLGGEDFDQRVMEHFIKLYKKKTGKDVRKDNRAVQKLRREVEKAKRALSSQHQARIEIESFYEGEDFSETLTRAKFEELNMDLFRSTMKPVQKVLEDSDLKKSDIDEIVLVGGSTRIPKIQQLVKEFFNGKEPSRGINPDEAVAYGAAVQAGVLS

Assay [2] addresses T1, BiP NBD. Briefly: NMR experiment with MABA-ATP (no E1, no E2) and kinetic fit of the MABA-ATP/MABA-ADP functional cycle. The assay is classed as biochemical. More on the design: His6 (N, cleaved yes); made in house; host or cells: E. coli BL21-(DE3)-Lemo, pET28a vector. To be noted: for koff / kon / Kd: MABA-ATP instead of ATP; for Kd: T = 37°C; for species: Supplementary Fig 13b. As for the experimental part:
[…] After the equilibration time 2D [^13C,^1H]-HMQC spectra were recorded in interleaved mode with 1D ^1H NMR spectra. […] The same setup was used for the alternative experiments by including or excluding E1 and/or E2. When E1 was not included, the ratio of the ATP/ADP NMR signals was used to monitor their relative concentrations.
(1 picture or pasted object on this page, not shown here)

The test system of assay [3] is BiP. To be noted: cited from earlier work.
Assay [4] deals with T1, BiP NBD. Put plainly: In-cyclo NMR with ATP regeneration (E1) and phosphate removal (E2): hydrolysis rate, state populations, occupancy times. Type of assay: biochemical. The settings on record: for khydr: Fig 3 f source data: replicates [1]-[3] and average; for cycle timing: Fig 4f source data: replicates [1]-[3] and average. More on the design: His6 (N, cleaved yes); made in house; host or cells: E. coli BL21-(DE3)-Lemo, pET28a vector. The text has this: In order to create a stable steady-state condition, we implemented two enzymatic systems inside the NMR tube to convert ADP into ATP and to remove the free phosphate, respectively. The first enzyme (E1) is pyruvate kinase, at catalytic amounts, which combines phosphoenol pyruvate (PEP) and ADP to form ATP (Fig. 3a). […] The second enzyme (E2) is sucrose phosphorylase, at catalytic amounts, which catalyzes the conversion of sucrose and phosphate into α-D-glucose-1-phosphate and D-fructose. […] To distinguish this experiment from equilibrium experiments, and highlight the unique setup to control ATP, ADP and Pi levels simultaneously, we refer to this setup as the “in-cyclo” NMR experiment.
We then set out to determine the kinetic parameters of the functional cycle. The NMR signal intensities of each of the three detected states are proportional to their population in the steady state. We integrated 51 non-overlapping independent methyl groups to obtain the population ratio pDtotal/pT, including 7 non-overlapping independent methyl groups to obtain the subpopulation ratio pD·Pi/pD.
The macroscopic hydrolysis rate khydr is experimentally determined from monitoring the pyruvate production. From there, the reaction flux f of the functional cycle results as19 f=khydrNBD0 The inverse of the hydrolysis rate is the average length of the functional cycle T.20 T=khydr−1 The flux is maintained along the cycle, resulting in the equations21 f=kcatNBD^ATP 22 f=koff4+koff5⋅NBD^ADP⋅Pi 23 f=koff2NBD^ADP+koff3NBD^Pi 24 f=kon1NBD^apoATP−koff1NBD^ATP 25 koff2NBD^ADP=koff4NBD^ADP⋅Pi
All in-cyclo NMR experiments were recorded with BiP NBD samples [U-^2H, ^15N, ^12C], Met-[^13CH3]^ε, Val-[^13CH3/^12C^2H3]^cγ1/cγ2, Ile-[^13CH3]^δ1 in NMR buffer (25 mM HEPES, pH 7.5, 150 mM KCl and 10 mM MgCl2) at a concentration of BiP NBD 100 μM. The in-cyclo ATP regeneration system was composed of 5 units of pyruvate kinase (E1) from rabbit muscle ( ≈ 200 nM; Sigma-Aldrich) and the concentration of phosphoenolpyruvate (PEP- Sigma-Aldrich) was adjusted to maintain the system active for at least four hours ([PEP] = 10–100 mM). The in-cyclo phosphate removal system was composed of 5 units of recombinant sucrose phosphorylase (E2) ( ≈ 500 nM; Sigma-Aldrich) and the concentration of sucrose (Sigma-Aldrich) was adjusted to maintain the system active for at least four hours ([Sucrose] = 10–100 mM). This experimental setup was modified as described in the text by selectively including E1 and/or E2 depending on the purpose of the experiments. All the experiments were recorded at minimum as experimental triplicates.
The in-cyclo experiment was initiated by the addition of 5 mM ATP (Sigma-Aldrich) and allowed to equilibrate at a temperature of 37 °C for 5 min in the NMR spectrometer. After the equilibration time 2D [^13C,^1H]-HMQC spectra were recorded in interleaved mode with 1D ^1H NMR spectra. […] The same setup was used for the alternative experiments by including or excluding E1 and/or E2.

Where “and” joins values, the source holds several entries; their conditions need not be identical. Equal values may be shown once.

As for `O=P(O)(O)O` [Pi], in assay [1], the “koff3 (EXSY)” value was found to be 1.32 ± 0.31 s⁻¹. Besides, the “kon3 (EXSY)” value in assay [1] is 5000 ± 2000 M⁻¹ s⁻¹. Further, the koff was found to be 1 ± 0.3 s⁻¹ in assay [2] (reactions 1MABA, 2MABA, 3) and 0.043 s⁻¹ in assay [2] (reactions 4MABA, 5MABA). Besides, the kon in assay [2] (reactions 1MABA, 2MABA, 3) is 3500 ± 500 M⁻¹ s⁻¹; in assay [2] (reactions 4MABA, 5MABA), 120 ± 20 M⁻¹ s⁻¹. Besides, the Kd stood at 280 ± 30 µM in assay [2] (reactions 1MABA, 2MABA, 3: release to apo NBD) and 360 ± 20 µM in assay [2] (reactions 4MABA, 5MABA: release from NBD·MABA-ADP·Pi). Also, the species in assay [2] (time 4 min) was determined as 350 µM; in assay [2] (time 10 min), 508 µM; in assay [2] (time 16 min), 626 µM; in assay [2] (time 22 min) it was 712 µM; in assay [2] (time 28 min), 800 µM; in assay [2] (time 34 min) it was 840 µM. Besides, the species came to 889 µM in assay [2] (time 40 min); 907 µM in assay [2] (time 46 min); 929 µM in assay [2] (time 52 min); 924 µM in assay [2] (time 58 min); 932 µM in assay [2] (time 64 min).

As to `[Ca+2]` [calcium], in assay [3] (concentration-dependent), the “increase of the MABA-ADP-bound lifetime” value is listed as “up to 4 fold”. Further, the “decrease of the ATP hydrolysis rate of BiP” value in assay [3] (physiological calcium levels compared to no calcium) is 2 fold.

In assay [4] (100 μM BiP NBD, 5 mM ATP, 37 °C), `Nc1ncnc2c1ncn2[C@@H]1O[C@H](COP(=O)(O)OP(=O)(O)OP(=O)(O)O)[C@@H](O)[C@H]1O` [ATP] showed an ATP consumption of 0.15 ± 0.01 mM/min. Also, in assay [4], the khydr is 1.417 min⁻¹ and 1.507 min⁻¹ and 1.488 min⁻¹; the cycle timing was 42.34 s and 39.82 s and 40.31 s. For the same compound, in assay [4] (mean), the khydr amounted to 1.471 min⁻¹ and the cycle timing was determined as 41 s. In addition, in assay [4] (from occupancy time of the T state), the “catalytic ATP hydrolysis rate kcat = tT^−1” value turned out to be 0.067 s⁻¹. In addition, the “average length of the functional cycle T = khydr^−1” value in assay [4] (in-cyclo, no calcium) amounted to 41 ± 2 s. In assay [4] (in-cyclo, no calcium, 37 °C), the “macroscopic hydrolysis rate khydr” value worked out at 1.47 ± 0.05 min⁻¹.
